Legend:
[1] = Stability of the compound at room temperature; type: physicochemical
Solubility in solvents = type: physicochemical
anaesthetized rat = assay: Influence on circulatory system (heart rate, blood pressure, max dP/dt, min dP/dt) in anaesthetized rat, continuous intravenous administration; type: in vivo; conditions: hydrochloride salt, i.v. continuous 0.1 mg/kg/minute for 20 minutes, difference vs 0 minute value; for change in the heart rate: FIG. 1; for change in blood pressure: FIG. 2; for change in left ventricular contraction function (max dP/dt): FIG. 3; for change in left ventricular relaxation function (min dP/dt): FIG. 4
Experimental: Measurement of heart rate, blood pressure, left ventricular contraction function (max dP/dt), and left ventricular relaxation function (min dP/dt)
Test method: In the present test, by using an anaesthetized rat, the influence of the hydrochloride salt of the first optical isomer component (A) and the second optical isomer component (B), each administered intravenously and continuously, on a circulatory system was determined. The test was performed with n=5 for each group. Each of the first component (A) or the second component (B) was continuously administered for 20 minutes at 0.1 mg/kg/minute, and then the measurement of heart rate, blood pressure, max dP/dt, and min dP/dt was performed. Each parameter was measured at 0 minute, 1 minute, 5 minutes, 10 minutes, 15 minutes, 20 minutes, 25 minutes, 30 minutes, 35 minutes, and 40 minutes after the administration, and the result was expressed in terms of a difference compared to the 0 minute value (previous value (i.e., control value)). The measurement value was expressed in terms of mean value±SD.
For the data of FIG. 1 to FIG. 4, determination of a significant difference was carried out by using t test.

anaesthetized beagle dog [2] = assay: Influence on atrial effective refractory period in anaesthetized beagle dog; type: in vivo; conditions: FIG. 5; for atrial effective refractory period (% change rate vs control value 100%): hydrochloride salt, i.v. 10 minutes at 0.1 mg/kg/minute then 20 minutes at 0.05 mg/kg/minute, pacing interval 250 msec
Experimental: Influence on Atrial Effective Refractory Period
Test method: In the present test, by using an anaesthetized beagle dog, the influence of hydrochloride salt of the first optical isomer component (A) and the second optical isomer component (B), each administered intravenously and continuously, on atrial effective refractory period was determined. The test was performed with n=5 for each group. The test compound was continuously administered for 10 minutes at 0.1 mg/kg/minute and then for 20 minutes at 0.05 mg/kg/minute. Measurement of atrial effective refractory period till 270 minutes after the termination of the administration was carried out. The pacing interval was 250 msec. The measurement value was expressed in terms of mean value±SD.
Test results: The test results are expressed in terms of % change rate when the previous value (i.e., control value) of atrial effective refractory period is set at 100%.
For the data of FIG. 5, determination of a significant difference was carried out by using t test.

anaesthetized beagle dog [3] = assay: Influence on ventricular effective refractory period in anaesthetized beagle dog; type: in vivo; conditions: for ventricular effective refractory period (% change rate vs control value 100%): anaesthetized beagle dog, i.v. rapid 5 minutes at 1 mg/kg/minute, measured immediately after administration, pacing interval 250 msec, FIG. 6; for extension of ventricular effective refractory period: beagle dog
Experimental: Influence on Ventricular Effective Refractory Period Test method: In the present test, by using an anaesthetized beagle dog, the influence of the first optical isomer component (A) and the second optical isomer component (B), each administered intravenously and rapidly, on ventricular effective refractory period was determined. The test was performed with n=5 for each group. The test compound was rapidly administered for 5 minutes at 1 mg/kg/minute. Measurement of ventricular effective refractory period was carried out immediately after the termination of the administration. The pacing interval was 250 msec. The measurement value was expressed in terms of mean value±SD. Test results: The test results are expressed in terms of % change rate when the previous value (i.e., control value) of ventricular effective refractory period is set at 100%.

With `COc1ccc2c(c1)CN(C(=O)CCN1CCC(Cc3ccccc3)CC1)CC[S+]2[O-]` (racemic) [[Ia], 4-[3-(4-benzylpiperidin-1-yl)propionyl]-7-methoxy-2,3,4,5-tetrahydro-1,4-benzothiazepine-1-oxide] the “stability to oxygen, humidity, acid, and alkali” value [1] was “stable”, the “solubility in ethanol and dimethyl sulfoxide (DMSO)” value (Solubility in solvents; free form, amorphous solid) was “easily dissolved” and the skin irritating property (Skin irritating property) was “has a skin irritating property”.
With `COc1ccc2c(c1)CN(C(=O)CCN1CCC(Cc3ccccc3)CC1)CC[S+]2[O-]` (single isomer, unassigned) [first optical isomer component (A), 4-[3-(4-benzylpiperidin-1-yl)propionyl]-7-methoxy-2,3,4,5-tetrahydro-1,4-benzothiazepine-1-oxide] the “change in the heart rate” value (anaesthetized rat) was “mildly increased”, the “change in blood pressure” value (anaesthetized rat) was “mildly increased” and the “change in left ventricular contraction function (max dP/dt)” value (anaesthetized rat) was “enhanced”. For the same compound, the “change in left ventricular relaxation function (min dP/dt)” value (anaesthetized rat) was “enhanced”, the “atrial effective refractory period (% change rate vs control value 100%)” value (anaesthetized beagle dog [2]) was “extended” and the “atrial effective refractory period extension compared with the other enantiomer” value (anaesthetized beagle dog [2]; same regimen) was “longer extension”. The “ventricular effective refractory period (% change rate vs control value 100%)” value (anaesthetized beagle dog [3]; 1 mg/kg) was “not extended” and the “extension of ventricular effective refractory period” value (anaesthetized beagle dog [3]; amount of up to 8 mg/Kg) was “does not show any extension”.
For `COc1ccc2c(c1)CN(C(=O)CCN1CCC(Cc3ccccc3)CC1)CC[S+]2[O-]` (single isomer, unassigned) [second optical isomer component (B), 4-[3-(4-benzylpiperidin-1-yl)propionyl]-7-methoxy-2,3,4,5-tetrahydro-1,4-benzothiazepine-1-oxide], the “change in the heart rate” value (anaesthetized rat) was “decreased”, the “change in blood pressure” value (anaesthetized rat) was “decreased” and the “change in left ventricular contraction function (max dP/dt)” value (anaesthetized rat) was “reduced”. For the same compound, the “change in left ventricular relaxation function (min dP/dt)” value (anaesthetized rat) was “reduced”, the “atrial effective refractory period (% change rate vs control value 100%)” value (anaesthetized beagle dog [2]) was “extended” and the “ventricular effective refractory period (% change rate vs control value 100%)” value (anaesthetized beagle dog [3]; 1 mg/kg) was “significantly extended”. The “extension of ventricular effective refractory period” value (anaesthetized beagle dog [3]; 1 mg/kg, dose dependent) was “can extend ventricular effective refractory period”.
With `COc1ccc2c(c1)CN(C(=O)CCN1CCC(Cc3ccccc3)CC1)CC[S+]2[O-]` (stereo not shown) [oxalate of the compound [Ia], 4-[3-(4-benzylpiperidin-1-yl)propionyl]-7-methoxy-2,3,4,5-tetrahydro-1,4-benzothiazepine-1-oxide] the “solubility in water, ethanol, and dimethyl sulfoxide” value (Solubility in solvents; oxalate, crystal) was “soluble”.
